Test results published in article PMC10799058, “Exploring the mechanism and phytochemicals in Psoraleae Fructus-induced hepatotoxicity based on RNA-seq, in vitro screening and molecular docking” (Scientific Reports, 2024).
pIC50: −log10 of the molar value. ≈ marks a conversion by molar mass, not a printed value. Like-named read-outs stand apart in the source and are kept apart here.

Experiments:
AML-12 cells [1] = experiment: High-content screening of mitotoxic endpoints (MMP by TMRM, mitochondrial superoxide by MitoSOX Red); details: 15 μmol/L, 24 h; for mitochondrial toxicity, overall ranking among 9 phytochemicals: MMP and mitochondrial superoxide taken together; for fluorescence intensity of Mitosox red (mitochondrial superoxide): versus control
Procedure: AML-12 cells were purchased from Procell (CL-0602, Wuhan, China) and cultured in cultured in DMEM/F12 medium (Gibco, Thermo Fisher Scientific, USA) with the supplement of 10% fetal bovine serum (FBS, Biological Industrials) and 1% penicillin/streptomycin (FG101-01, Transgene, China). AML-12 cells were maintained in a humidified incubator containing 5% CO2 at 37 °C.
AML-12 cells were seeded into 96-well plates and incubated at 37 °C in an atmosphere containing 5% CO2 for 12 h until they visibly reached confluence. After the cells were treated with the same concentration of each drug (15 μmol/L) for 24 h, the supernatants were removed from the cell plates and the fluorescent dyes were added. Hoechst 33,342 was applied to characterize cell counts and nuclear area. TMRM and MitoSOX™ Red were applied to characterize mitochondrial membrane potential (MMP) and mitochondrial superoxides, respectively. Then, the multi-parameter cytotoxicities were measured by a high content imaging system (Molecular Devices, Metaxpress) and subsequent data analysis was performed by Harmony 3.0 Software (Perkin Elmer, Waltham, MA, USA). Each experiment was assayed in triplicate wells and three independent replicates.

AML-12 cells [2] = experiment: CCK-8 assay, toxic effects on AML-12 cells; format: cell-based; details: for pIC50: CCK-8, treatment 24 h, read-out: IC50 toward AML12 cells
Procedure: To uncover the potential hepatotoxic components, CCK-8 assay was performed toevaluate the toxic effects of 9 chemicals in PF on AML-12 cells. With the treatment […]
AML-12 cells were seeded into 96-well plates for 24 h until they visibly reached confluence. Then, AML-12 cells were treated with different concentrations of the nine chemical compounds in PF for 24 h. The multiple concentrations of each compound […]
wells were set up for each group. After treatment, AML-12 cells were washed with PBS buffer gently and incubated with DMEM/F12 medium containing 10% CCK-8 solution for 0.5-2 h. OD value was measured with live cell imaging system (Cytation 5,BioTek, USA) at 450 nm.
Cell viability (%) = [(OD value of the experimental group − OD value of the blank group)/ (OD value of the control group − OD value of the blank group)] ×

[3] = Solubility in DMEM/F12 culture medium; details: aqueous buffer, kinetic from dmso stock

Compound	mitochondrial toxicity, overall ranking among 9 phytochemicals (AML-12 cells [1])	fluorescence intensity of Mitosox red (mitochondrial superoxide) (AML-12 cells [1])	pIC50 (AML-12 cells [2]; Mus musculus, AML12)	pIC50 (AML-12 cells [2])	solubility [3]	toxicity to AML-12 cells (AML-12 cells [2])
CC(C)=CCc1cc2c(cc1O)O[C@H](c1ccc(O)cc1)CC2=O [bavachin, Bavachin]	most potent mitochondrial toxicities	prominently promoted	4.48			
bavachinin				4.22		
C=C[C@@](C)(/C=C/c1ccc(O)cc1)CCC=C(C)C [bakuchiol]	most potent mitochondrial toxicities	prominently promoted	4.46			
O=c1ccc2ccc3occc3c2o1 [isopsoralen]					800 µM (≈ 149 µg/mL)	no obvious toxicity
CC(C)=CCc1cc2c(cc1O)oc(=O)c1c3ccc(O)cc3oc21 [psoralidin, Psoralidin]		prominently promoted		4.75		
CC(C)=CCc1c(O)ccc(C(=O)/C=C/c2ccc(O)cc2)c1O [isobavachalcone]	most potent mitochondrial toxicities	prominently promoted	4.54			
Corylin				4.46		
